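The compound was tested at five concentrations on cells cultured in 96-well plates, with a 48-hour exposure period. Abbreviation: GI50, concentration required for 50% inhibition of growth. At the TGI there is no net growth.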
What was measured:
Assay in all cases: NCI tumour cell line growth inhibition, 48 h
IGROV1 ovarian = system: IGROV1 ovarian
PC-3 prostate = system: PC-3 prostate
HCT-116 colon = system: HCT-116 colon
HS 578T breast = system: HS 578T breast
NCI-H522 lung = system: NCI-H522 lung
DU-145 prostate = system: DU-145 prostate
UO-31 renal = system: UO-31 renal
SF-539 CNS = system: SF-539 CNS
MOLT-4 leukemia = system: MOLT-4 leukemia
SNB-19 CNS = system: SNB-19 CNS
A549 NSCLC = system: A549 NSCLC
SK-OV-3 ovarian = system: SK-OV-3 ovarian
T-47D breast = system: T-47D breast
SN12C renal = system: SN12C renal
COLO 205 colon = system: COLO 205 colon
U251 CNS = system: U251 CNS
CAKI-1 renal = system: CAKI-1 renal
ACHN renal = system: ACHN renal
SW-620 colon = system: SW-620 colon
786-0 renal = system: 786-0 renal
NCI-H23 lung = system: NCI-H23 lung
HCT-15 colon = system: HCT-15 colon
MDA-MB-435 = system: MDA-MB-435
SK-MEL-5 melanoma = system: SK-MEL-5 melanoma
MDA-MB-468 breast = system: MDA-MB-468 breast
NCI/ADR-RES ovarian = system: NCI/ADR-RES ovarian
RPMI-8226 leukemia = system: RPMI-8226 leukemia
OVCAR-5 ovarian = system: OVCAR-5 ovarian
NCI-H460 lung = system: NCI-H460 lung
BT-549 breast = system: BT-549 breast
SK-MEL-28 melanoma = system: SK-MEL-28 melanoma
HOP-92 NSCLC = system: HOP-92 NSCLC
CCRF-CEM leukemia = system: CCRF-CEM leukemia
SNB-75 CNS = system: SNB-75 CNS
K-562 leukemia = system: K-562 leukemia
LOX IMVI melanoma = system: LOX IMVI melanoma
MDA-MB-231 breast = system: MDA-MB-231 breast
MCF7 breast = system: MCF7 breast
EKVX NSCLC = system: EKVX NSCLC
SK-MEL-2 melanoma = system: SK-MEL-2 melanoma
HOP-62 NSCLC = system: HOP-62 NSCLC
SF-295 CNS = system: SF-295 CNS
HL-60(TB) leukemia = system: HL-60(TB) leukemia
SR leukemia = system: SR leukemia
NCI-H226 lung = system: NCI-H226 lung
HT29 colon = system: HT29 colon
HCC-2998 colon = system: HCC-2998 colon
OVCAR-3 ovarian = system: OVCAR-3 ovarian
UACC-62 melanoma = system: UACC-62 melanoma
OVCAR-8 ovarian = system: OVCAR-8 ovarian
MALME-3M melanoma = system: MALME-3M melanoma
OVCAR-4 ovarian = system: OVCAR-4 ovarian
SF-268 CNS = system: SF-268 CNS
M14 melanoma = system: M14 melanoma
KM12 colon = system: KM12 colon
A498 renal = system: A498 renal
TK-10 renal = system: TK-10 renal
RXF 393 renal = system: RXF 393 renal
UACC-257 melanoma = system: UACC-257 melanoma

CCOc1ccccc1[C@H]1C(C(=O)c2ccc(Cl)cc2)C2(N[C@@H]1c1ccccc1)C(=O)Nc1ccc(Br)cc12 (stereo partly drawn) showed a GI50 (IGROV1 ovarian) of 4.88 µM, a TGI (IGROV1 ovarian) of 21.2 µM and a GI50 (PC-3 prostate) of 3.6 µM. For the same compound, the TGI (PC-3 prostate) was over 34.5 µM, the GI50 (HCT-116 colon) was 4.76 µM and the TGI (HCT-116 colon) was 11 µM. For the same compound, the GI50 (HS 578T breast) was 4.77 µM, the TGI (HS 578T breast) was 15.2 µM and the GI50 (NCI-H522 lung) was 4.41 µM. For the same compound, the TGI (NCI-H522 lung) was 13.4 µM, the GI50 (DU-145 prostate) was 8.88 µM and the TGI (DU-145 prostate) was 32.2 µM. For the same compound, the GI50 (UO-31 renal) was 4.99 µM, the TGI (UO-31 renal) was 20.8 µM and the GI50 (SF-539 CNS) was 7.93 µM. The TGI (SF-539 CNS) was 20.2 µM, the GI50 (MOLT-4 leukemia) was 4.46 µM and the TGI (MOLT-4 leukemia) was 19.8 µM. For the same compound, the GI50 (SNB-19 CNS) was 9.14 µM, the TGI (SNB-19 CNS) was over 34.5 µM and the GI50 (A549 NSCLC) was 6.58 µM. The TGI (A549 NSCLC) was over 34.5 µM, the GI50 (SK-OV-3 ovarian) was 9.66 µM and the TGI (SK-OV-3 ovarian) was over 34.5 µM. For the same compound, the GI50 (T-47D breast) was 4.05 µM, the TGI (T-47D breast) was over 34.5 µM and the GI50 (SN12C renal) was 4.46 µM. For the same compound, the TGI (SN12C renal) was 9.03 µM, the GI50 (COLO 205 colon) was 5.35 µM and the TGI (COLO 205 colon) was 10.6 µM. For the same compound, the GI50 (U251 CNS) was 5.72 µM, the TGI (U251 CNS) was 13.9 µM and the GI50 (CAKI-1 renal) was 2.92 µM. It also gave a TGI (CAKI-1 renal) of over 34.5 µM, a GI50 (ACHN renal) of 7.25 µM and a TGI (ACHN renal) of over 34.5 µM. It also gave a GI50 (SW-620 colon) of 6.55 µM, a TGI (SW-620 colon) of 19 µM and a GI50 (786-0 renal) of 5.76 µM. The TGI (786-0 renal) was 17.6 µM, the GI50 (NCI-H23 lung) was 5.43 µM and the TGI (NCI-H23 lung) was 13.8 µM. For the same compound, the GI50 (HCT-15 colon) was 7.51 µM, the TGI (HCT-15 colon) was 33.3 µM and the GI50 (MDA-MB-435) was 5.55 µM. For the same compound, the TGI (MDA-MB-435) was 12.7 µM, the GI50 (SK-MEL-5 melanoma) was 5.41 µM and the TGI (SK-MEL-5 melanoma) was 10.8 µM. The GI50 (MDA-MB-468 breast) was 3.46 µM, the TGI (MDA-MB-468 breast) was 12.6 µM and the GI50 (NCI/ADR-RES ovarian) was 5.25 µM. For the same compound, the TGI (NCI/ADR-RES ovarian) was 13 µM, the GI50 (RPMI-8226 leukemia) was 6.69 µM and the TGI (RPMI-8226 leukemia) was over 34.5 µM. For the same compound, the GI50 (OVCAR-5 ovarian) was 7 µM, the TGI (OVCAR-5 ovarian) was 24.5 µM and the GI50 (NCI-H460 lung) was 5.11 µM. The TGI (NCI-H460 lung) was 10.8 µM, the GI50 (BT-549 breast) was 5.3 µM and the TGI (BT-549 breast) was 10.8 µM. The GI50 (SK-MEL-28 melanoma) was 6.28 µM, the TGI (SK-MEL-28 melanoma) was 15.7 µM and the GI50 (HOP-92 NSCLC) was 5.42 µM. The TGI (HOP-92 NSCLC) was 14.6 µM, the GI50 (CCRF-CEM leukemia) was 22.8 µM and the TGI (CCRF-CEM leukemia) was over 34.5 µM. The GI50 (SNB-75 CNS) was 4.2 µM, the TGI (SNB-75 CNS) was 25 µM and the GI50 (K-562 leukemia) was 7.41 µM. For the same compound, the TGI (K-562 leukemia) was over 34.5 µM, the GI50 (LOX IMVI melanoma) was 4.17 µM and the TGI (LOX IMVI melanoma) was 8.44 µM. For the same compound, the GI50 (MDA-MB-231 breast) was 4.04 µM, the TGI (MDA-MB-231 breast) was 8.87 µM and the GI50 (MCF7 breast) was 6.45 µM. The TGI (MCF7 breast) was 29.9 µM, the GI50 (EKVX NSCLC) was 7.9 µM and the TGI (EKVX NSCLC) was over 34.5 µM. The GI50 (SK-MEL-2 melanoma) was 5.59 µM, the TGI (SK-MEL-2 melanoma) was 12.4 µM and the GI50 (HOP-62 NSCLC) was 5.62 µM. It also gave a TGI (HOP-62 NSCLC) of 13.5 µM, a GI50 (SF-295 CNS) of 5.79 µM and a TGI (SF-295 CNS) of 21.6 µM. The GI50 (HL-60(TB) leukemia) was 4.77 µM, the TGI (HL-60(TB) leukemia) was 16.3 µM and the GI50 (SR leukemia) was 5.17 µM. The TGI (SR leukemia) was 16.3 µM, the GI50 (NCI-H226 lung) was 4.32 µM and the TGI (NCI-H226 lung) was 10.6 µM. The GI50 (HT29 colon) was 4.46 µM, the TGI (HT29 colon) was 10.1 µM and the GI50 (HCC-2998 colon) was 4.88 µM. The TGI (HCC-2998 colon) was 13 µM, the GI50 (OVCAR-3 ovarian) was 5.07 µM and the TGI (OVCAR-3 ovarian) was 12.8 µM. It also gave a GI50 (UACC-62 melanoma) of 3.45 µM, a TGI (UACC-62 melanoma) of 7.98 µM and a GI50 (OVCAR-8 ovarian) of 6.06 µM. The TGI (OVCAR-8 ovarian) was 19.3 µM, the GI50 (MALME-3M melanoma) was 5.7 µM and the TGI (MALME-3M melanoma) was 12.1 µM. The GI50 (OVCAR-4 ovarian) was 8.09 µM, the TGI (OVCAR-4 ovarian) was over 34.5 µM and the GI50 (SF-268 CNS) was 6.2 µM. For the same compound, the TGI (SF-268 CNS) was 24.4 µM, the GI50 (M14 melanoma) was 5.55 µM and the TGI (M14 melanoma) was 14.5 µM. For the same compound, the GI50 (KM12 colon) was 6 µM, the TGI (KM12 colon) was 20.4 µM and the GI50 (A498 renal) was 4.45 µM. It also gave a TGI (A498 renal) of 13.7 µM, a GI50 (TK-10 renal) of 8.22 µM and a TGI (TK-10 renal) of 28.5 µM. For the same compound, the GI50 (RXF 393 renal) was 3.8 µM, the TGI (RXF 393 renal) was 9.29 µM and the GI50 (UACC-257 melanoma) was 5.86 µM. The TGI (UACC-257 melanoma) was 17.6 µM.
